In brackets after ≈: the same amount, converted by molar mass. Activity calls are given as the source filed them. No cut-off for these calls is given here.
How the values were obtained:
[1] = Cmax in Sprague-Dawley rat at 3 mg/kg, po; type: ADME, organism-based; set-up: dose 3 mg/kg, route oral; settings: in vivo
[2] = Cmax in C57BL/6 mouse at 3 mg/kg, po; type: ADME, organism-based; set-up: dose 3 mg/kg, route oral; settings: in vivo
[3] = Clearance in C57BL/6 mouse at 1 mg/kg, iv or 3 mg/kg, po; type: ADME, organism-based; settings: in vivo
[4] = Oral bioavailability in Sprague-Dawley rat at 3 mg/kg; type: ADME, organism-based; settings: in vivo
[5] = Oral bioavailability in C57BL/6 mouse at 3 mg/kg; type: ADME, organism-based; settings: in vivo
[6] = Clearance in Sprague-Dawley rat at 1 mg/kg, iv or 3 mg/kg, po; type: ADME, organism-based; settings: in vivo
Estrogen receptor = biological target: T1, Estrogen receptor (Homo sapiens, UniProt P03372); assay: Induction of selective estrogen receptor alpha degradation in human MCF7 cells harboring TK-ERE-Luc assessed as reduction in estradiol-induced transcriptional activity after 24 hrs by luciferase reporter gene assay; type: cell-based
T1 sequence (P03372 whole entry): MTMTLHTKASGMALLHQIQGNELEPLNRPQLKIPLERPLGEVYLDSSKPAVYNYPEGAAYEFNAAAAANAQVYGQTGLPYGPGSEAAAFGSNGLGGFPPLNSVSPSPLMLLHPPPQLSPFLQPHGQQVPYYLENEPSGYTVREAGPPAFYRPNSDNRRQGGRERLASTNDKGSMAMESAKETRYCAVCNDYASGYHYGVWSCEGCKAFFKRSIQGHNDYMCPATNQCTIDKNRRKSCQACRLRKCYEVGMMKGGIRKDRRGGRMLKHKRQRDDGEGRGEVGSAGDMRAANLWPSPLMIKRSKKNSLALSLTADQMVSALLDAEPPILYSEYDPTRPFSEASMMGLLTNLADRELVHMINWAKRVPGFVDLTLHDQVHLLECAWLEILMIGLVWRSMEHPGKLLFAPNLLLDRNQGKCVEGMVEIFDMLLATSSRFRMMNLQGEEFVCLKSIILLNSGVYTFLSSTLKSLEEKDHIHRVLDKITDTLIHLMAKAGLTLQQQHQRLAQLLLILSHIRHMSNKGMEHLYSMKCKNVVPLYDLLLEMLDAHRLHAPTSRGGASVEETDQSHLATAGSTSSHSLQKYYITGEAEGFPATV

[7] = Equilibrium solubility in pH 6.8 buffer at 1 mM after 16 hrs by HPLC based shake flask method; type: physicochemical
Mus musculus = assay: Downregulation of progesterone receptor mRNA level in NOD SCID gamma mouse xenografted with human MCF7 cells at 60 mg/kg, po 5 days per week for 48 days post tumor implantation measured 7 hrs post last dose by RT-PCR method; type: functional, organism-based
MCF7 = assay: Antitumor activity against human MCF7 cells xenografted in NOD SCID gamma mouse assessed as change in tumor volume at 60 mg/kg, po 5 days per week for 48 days post tumor implantation measured 7 hrs post last dose; type: functional

| Compound | Cmax [2] | clearance [3] | bioavailability [5] | other results |
| --- | --- | --- | --- | --- |
| Cc1cc(F)ccc1-c1sc2cc(O)ccc2c1Oc1ccc(/C=C/C(=O)O)cc1 | 925 nM | 33 mL/min/kg | 34% | – |
| Cn1cnc(/C=C/c2ccc(Oc3c(-c4ccc(O)cc4)sc4cc(O)ccc34)cc2)c1 | – | – | – | solubility thermodynamic at 16 h, 1000 µM [7]: 9 µM (≈ 3.96 µg/mL) |
| CC(C)c1ccccc1-c1sc2cc(O)ccc2c1Oc1ccc(/C=C/C(=O)O)cc1 | 1180 nM | 15 mL/min/kg | 13% | – |
| O=C(/C=C/c1ccc(Oc2c(-c3ccc(O)cc3)sc3cc(O)ccc23)cc1)NCCO | – | – | – | solubility thermodynamic at 16 h, 1000 µM [7]: 11 µM (≈ 4.92 µg/mL) |
| O=C(O)CCc1ccc(Oc2c(-c3ccc(O)cc3)sc3cc(O)ccc23)cc1 | – | – | – | solubility thermodynamic at 16 h, 1000 µM [7]: > 1000 µM |
| Cc1cc(-c2sc3cc(O)ccc3c2Oc2ccc(/C=C/C(=O)O)cc2)ccc1O | 46 nM | 46 mL/min/kg | 2% | – |
| O=C(O)/C=C/c1ccc(Nc2c(-c3ccc(O)cc3)sc3cc(O)ccc23)cc1 | – | – | – | IC50 (Estrogen receptor): > 10000 nM |
| CC/C(=C(\c1ccccc1)c1ccc(OCCN(C)C)cc1)c1ccccc1 [TAMOXIFEN] | – | – | – | Activity (Mus musculus): Active; T/C (MCF7): 24% |
| CC(F)(F)c1ccccc1-c1sc2cc(O)ccc2c1Oc1ccc(/C=C/C(=O)O)cc1 | 187 nM | 14 mL/min/kg | 5% | – |

The next lines start with results.

| Cmax [2] | clearance [3] | bioavailability [5] | Compound | other results |
| --- | --- | --- | --- | --- |
| 1380 nM | 6 mL/min/kg | 28% | O=C(O)/C=C/c1ccc(Oc2c(-c3ccc(C(F)(F)F)cc3)sc3cc(O)ccc23)cc1 | Cmax [1]: 985 nM; bioavailability [4]: 74%; clearance [6]: 30 mL/min/kg |
| 505 nM | 22 mL/min/kg | 19% | O=C(O)/C=C/c1ccc(Oc2c(-c3ccc(F)cc3)sc3cc(O)ccc23)cc1 | Cmax [1]: 847 nM; bioavailability [4]: 33%; clearance [6]: 24 mL/min/kg; IC50 (Estrogen receptor): 1820 nM |
